From article PMC10225205 (Cancer Medicine, 2023)

Columns and labels:
[1] = cited from earlier work
pFGFR2 = conditions: read-out: In vivo IC50 for the inhibition of pFGFR2; cited from earlier work
advanced solid tumors = experiment: FIGHT-102 efficacy, investigator-assessed RECIST 1.1; type: in vivo, human; design: key to Best overall response: PR, partial response; SD, stable disease; PD, progressive disease; NE, not evaluable
Protocol: Efficacy assessments occurred at screening (baseline scan) and on Day 15 of every third cycle with a ±2‐day window. Tumor status was assessed by the investigator using appropriate disease‐specific techniques. For solid tumors, the Response Evaluation Criteria in Solid Tumors (RECIST) 1.1 criteria were used,[19] and the recommended method for measuring tumor burden was computed tomography scan. Alternative modalities compatible with RECIST 1.1 could be used at the investigator's discretion provided they were used consistently throughout the study.
Both the efficacy and the safety population included all patients who received at least 1 dose of study drug. The PK/pharmacodynamic population included all patients who received at least one dose of study drug and provided at least one postdose plasma sample for PK/pharmacodynamic measurement. No comparisons are made between patients or against historical controls; only comparisons to pretreatment conditions were made.

[2] = Part 1, 13.5 mg ID, breast cancer, local no alteration detected
[3] = Part 1, 13.5 mg ID, cholangiocarcinoma, central FGF1 amp, FGFR2 amp
[4] = Part 1, 13.5 mg ID, other (intrahepatic cholangiocarcinoma), central no alteration detected
[5] = Part 1, 13.5 mg ID, other (lower bile duct cancer), central FGF6 mutation (p.S143N)
[6] = Part 1, 18 mg ID, neuroendocrine cancer, local FGF6/23 amp
[7] = Part 1, 18 mg ID, other (intrahepatic cholangiocarcinoma), not tested
[8] = Part 2, 13.5 mg CD, breast cancer, local FGFR1 amp, FGFR3 mutation
[9] = Part 2, 13.5 mg CD, colorectal cancer, central FGFR1 amp
[10] = Part 2, 13.5 mg CD, gallbladder cancer, central FGF3/4/19 amp
[11] = Part 2, 13.5 mg CD, other (prostate cancer), central FGFR1 amp
[12] = Part 2, 13.5 mg CD, other (rectal cancer), central FGFR1 amp
[13] = Part 2, 13.5 mg CD, other (uterine cervix carcinoma), central FGFR2 amp
[14] = Part 2, 13.5 mg CD, urothelial tract/bladder cancer (bladder cancer), central FGF3/4/19 amp, FGFR3 alteration
[15] = Part 2, 13.5 mg CD, urothelial tract/bladder cancer (renal pelvis cancer), central FGF3/4/19 amp
[16] = Part 2, 13.5 mg ID, breast cancer, central FGFR1 amp
[17] = Part 2, 13.5 mg ID, cholangiocarcinoma, central FGFR2 alteration, local FGFR2 translocation
[18] = Part 2, 13.5 mg ID, cholangiocarcinoma, central FGFR3 mutation
[19] = Part 2, 13.5 mg ID, colorectal cancer, central FGFR1 amp
[20] = Part 2, 13.5 mg ID, esophageal cancer, central FGF3/4/12/19 amp

CCN1C(=O)N(c2c(F)c(OC)cc(OC)c2F)Cc2cnc3[nH]c(CN4CCOCC4)cc3c21 [Pemigatinib]
AUC0-24 geometric mean ([1]; 13.5 mg QD steady state, CV% 54.1): 2.62 µM·h | Geometric mean half-life ([1]; 13.5 mg QD, CV% 51.6): 15.4 h | Cmax ([1]; 13.5 mg QD, CV% 56.4, read-out: Steady-state Cmax geometric mean): 236 nM | Terminal half-life ([1]; dose-independent): 15 h | Time to reach Cmax ([1]; doses of ≥6 mg): 1 to 2 h | IC50 (pFGFR2): 22.6 nM | Best overall response of complete response or PR (advanced solid tumors; Part 1): no patient | Median best percentage change from baseline in target lesion size (advanced solid tumors; Part 1): −2.6% | Best overall response stable disease (advanced solid tumors; Part 1, 7 patients): 50.0% | Best overall response (advanced solid tumors; Part 1, 9 mg ID, gastric cancer): SD | Best change in sum of target lesion diameters (advanced solid tumors; Part 1, 9 mg ID, gastric cancer, central and local not tested): –13.3% | Best overall response (advanced solid tumors; Part 1, 9 mg ID, other (epithelioid hemangioendothelioma)): SD | Best change in sum of target lesion diameters (advanced solid tumors; Part 1, 9 mg ID, other (epithelioid hemangioendothelioma), central and local not tested): –12.6% | Best overall response (advanced solid tumors; Part 1, 9 mg ID, other (medulloblastoma), local no alteration detected): PD | Best change in sum of target lesion diameters (advanced solid tumors; [2]): 28.1% | Best overall response (advanced solid tumors; [2]): PD | Best change in sum of target lesion diameters (advanced solid tumors; [3]): –8.5% | Best overall response (advanced solid tumors; [3]): SD | Best overall response (advanced solid tumors; Part 1, 13.5 mg ID, colorectal cancer, FGFR1 amp): PD | Best change in sum of target lesion diameters (advanced solid tumors; Part 1, 13.5 mg ID, colorectal cancer, central and local FGFR1 amp): –21.1% | Best overall response (advanced solid tumors; Part 1, 13.5 mg ID, lung cancer (NSCLC)): SD | Best change in sum of target lesion diameters (advanced solid tumors; Part 1, 13.5 mg ID, lung cancer (NSCLC), not tested): –29.0% | Best change in sum of target lesion diameters (advanced solid tumors; [4]): 4.4% | Best overall response (advanced solid tumors; [4]): SD | Best change in sum of target lesion diameters (advanced solid tumors; [5]): –5.1% | Best overall response (advanced solid tumors; [5]): SD | Best change in sum of target lesion diameters (advanced solid tumors; [6]): 37.5% | Best overall response (advanced solid tumors; [6]): PD | Best change in sum of target lesion diameters (advanced solid tumors; Part 1, 18 mg ID, other (intrahepatic cholangiocarcinoma), central none, local FGFR2 fusion): 0% | Best overall response (advanced solid tumors; Part 1, 18 mg ID, other (intrahepatic cholangiocarcinoma), local FGFR2 fusion): SD | Best change in sum of target lesion diameters (advanced solid tumors; [7]): 16.7% | Best overall response (advanced solid tumors; [7]): PD | Best overall response (advanced solid tumors; Part 1, 18 mg ID, other (pancreatic head cancer)): PD | Best change in sum of target lesion diameters (advanced solid tumors; Part 1, 18 mg ID, other (pancreatic head cancer), local no alteration detected): 1.0% | Median of best percentage change from baseline in target lesion size (advanced solid tumors; Part 2): 15.2% | Patients achieving PR (advanced solid tumors; Part 2, 13.5 mg CD): 4 n | Patients achieving PR (advanced solid tumors; Part 2, 13.5 mg ID): 1 n | Partial response (advanced solid tumors; Part 2, 5 patients): 16.7% | Stable disease (advanced solid tumors; Part 2, 6 patients): 20% | Best change in sum of target lesion diameters (advanced solid tumors; [8]): 6.4% | Best overall response (advanced solid tumors; [8]): NE | Best overall response (advanced solid tumors; Part 2, 13.5 mg CD, breast cancer, local FGFR2 amp (best change –26.2%)): SD | Best overall response (advanced solid tumors; Part 2, 13.5 mg CD, breast cancer, local FGFR2 amp (best change –44.4%)): PR | Best change in sum of target lesion diameters (advanced solid tumors; Part 2, 13.5 mg CD, breast cancer, local FGFR2 amp (patient with PR)): –44.4% | Best change in sum of target lesion diameters (advanced solid tumors; Part 2, 13.5 mg CD, breast cancer, local FGFR2 amp (patient with SD)): –26.2% | Best change in sum of target lesion diameters (advanced solid tumors; Part 2, 13.5 mg CD, cholangiocarcinoma, central none, local FGFR2 translocation): –30.6% | Best overall response (advanced solid tumors; Part 2, 13.5 mg CD, cholangiocarcinoma, local FGFR2 translocation): PR | Best change in sum of target lesion diameters (advanced solid tumors; [9]): 26.5% | Best overall response (advanced solid tumors; [9]): PD | Best change in sum of target lesion diameters (advanced solid tumors; Part 2, 13.5 mg CD, colorectal cancer, central none, local FGF19 amp): 41.0% | Best overall response (advanced solid tumors; Part 2, 13.5 mg CD, colorectal cancer, local FGF19 amp): PD | Best overall response (advanced solid tumors; Part 2, 13.5 mg CD, esophageal cancer, FGFR3 translocation: fusion): SD | Best change in sum of target lesion diameters (advanced solid tumors; Part 2, 13.5 mg CD, esophageal cancer, central and local FGFR3 translocation: fusion): –4.3% | Best change in sum of target lesion diameters (advanced solid tumors; [10]): –43.8% | Best overall response (advanced solid tumors; [10]): PR | Best change in sum of target lesion diameters (advanced solid tumors; [11]): 15.2% | Best overall response (advanced solid tumors; [11]): PD | Best change in sum of target lesion diameters (advanced solid tumors; [12]): 0.0% | Best overall response (advanced solid tumors; [12]): SD | Best change in sum of target lesion diameters (advanced solid tumors; [13]): 22.7% | Best overall response (advanced solid tumors; [13]): PD | Best change in sum of target lesion diameters (advanced solid tumors; [14]): –37.2% | Best overall response (advanced solid tumors; [14]): PR | Best change in sum of target lesion diameters (advanced solid tumors; [15]): 12.1% | Best overall response (advanced solid tumors; [15]): PD | Best change in sum of target lesion diameters (advanced solid tumors; [16]): 18.1% | Best overall response (advanced solid tumors; [16]): PD | Best change in sum of target lesion diameters (advanced solid tumors; [17]): –13.8% | Best overall response (advanced solid tumors; [17]): SD | Best change in sum of target lesion diameters (advanced solid tumors; [18]): 30.9% | Best overall response (advanced solid tumors; [18]): PD | Best change in sum of target lesion diameters (advanced solid tumors; [19]): 44.7% | Best overall response (advanced solid tumors; [19]): PD | Best change in sum of target lesion diameters (advanced solid tumors; [20]): 34.9% | Best overall response (advanced solid tumors; [20]): PD | Best overall response (advanced solid tumors; Part 2, 13.5 mg ID, esophageal cancer, central FGF3/4/19 amp, local FGF19 amp): PD
